Results reported in patent publication US12497349B2, “Salts of tranexamic acid esters” (Actera Ingredients, Inc., priority 2019, dated 2025).

Assay: Viscosity by vertical falling sphere method
Assay type: physicochemical
Conditions: room temperature 25±1° C.; 1.0 and 5.0 wt. % in water; compared to the tranexamate hydrochloride salt; FIG. 2
Experimental: Compositions of tranexamate ester salts with differing counter-ions as shown in Table 5 were prepared as follows. 1) Ingredients A to C were combined based on the weight ratios in Table 5. 2) The mixture was heated with stirring to 80±5° C. until all solids were dissolved. 3) The homogeneous mixture was removed from the heat and allowed to cool to room temperature (25±5° C.).
The viscosity at room temperature (25±1° C.) of Examples 13-16 was determined by the method of the vertical falling sphere using the equation μ=[2 (ρs−ρl) g a^2 ]/9v, where μ=dynamic viscosity, ρs=density of the sphere, ρl=density of the test material (Examples 13-16), g=standard gravity, a=radius of the sphere, and v=velocity of the sphere.
Results are represented in FIG. 2. […] Additionally, the tranexamate sulfonate salt yielded stable and homogeneous compositions not observed with the tranexamate hydrochloride salt (see Examples 1 to 12).

SMILES: CCCCCCCCCCCCCCCCOC(=O)C1CCC(CN)CC1.CS(=O)(=O)O (stereo not shown) [tranexamate sulfonate salt, Cetyl tranexamate mesylate]
- Viscosity: higher viscosity with increasing concentration
